{"source": "patent US8962810B2", "about": "“Macrocyclic heterocyclic compound for inhibiting hepatitis C virus and preparation and use thereof” (AB Pharma Ltd., priority 2011, dated 2015)"}
{"target": "T1, HCV Protease (HCV NS3-4A) (Hepatitis C virus genotype 1a, UniProt P27958)", "T1 construct": "HCV Protease: HCV NS3-4A, self-prepared; made in house", "T1 sequence (P27958 1658-1711)": "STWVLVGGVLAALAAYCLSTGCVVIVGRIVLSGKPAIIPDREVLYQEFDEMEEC", "T1 sequence (P27958 1027-1657)": "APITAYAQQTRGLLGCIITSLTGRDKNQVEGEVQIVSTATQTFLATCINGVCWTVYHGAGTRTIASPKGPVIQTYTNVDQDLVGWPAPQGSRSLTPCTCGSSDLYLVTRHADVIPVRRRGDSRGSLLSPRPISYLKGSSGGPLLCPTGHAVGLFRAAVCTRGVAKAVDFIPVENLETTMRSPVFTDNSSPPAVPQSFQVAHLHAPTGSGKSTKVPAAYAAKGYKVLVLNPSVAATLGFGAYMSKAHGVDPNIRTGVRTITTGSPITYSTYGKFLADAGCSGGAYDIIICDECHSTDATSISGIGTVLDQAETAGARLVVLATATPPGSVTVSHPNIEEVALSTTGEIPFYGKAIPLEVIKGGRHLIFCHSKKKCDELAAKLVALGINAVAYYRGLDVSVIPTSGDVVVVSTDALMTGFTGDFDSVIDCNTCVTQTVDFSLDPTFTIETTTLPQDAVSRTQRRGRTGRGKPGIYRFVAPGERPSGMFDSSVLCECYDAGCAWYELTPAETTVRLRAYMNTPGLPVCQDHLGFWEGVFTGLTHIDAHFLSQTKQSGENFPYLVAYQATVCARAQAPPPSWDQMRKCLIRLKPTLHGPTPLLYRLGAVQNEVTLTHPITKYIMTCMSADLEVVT", "assay": "HCV Protease (HCV NS3-4A) anti-activity assay, fluorescence quenching (FRET)", "assay_type": "biochemical", "experimental": "Method of HCV Protease (HCV NS3-4A) Anti-Activity Assay:\nHCV Protease (HCV NS3/4A) anti-activity was measured by an inter fluorescence quenching system. EDANS group and DABCYL group were bonded on each side of a peptide. When protein cleavage started, fluorescence quenching of EDANS by DABCYL was detected. We used a high throughput screening model for HCV NS3/4A protease inhibitors, the tested drugs were prepared with 5 different concentrations, positive control and negative control were set in the same time. In the optimized reaction system, fluorescence were determined at ex=355, em=520 by a Polarstar fluorescence detector. Calculate the inhibition rate of each concentration; calculate the half maximal inhibitory concentration (IC50) with the method of Reed-Muench.\nMaterials: HCV Protease: HCV NS3-4A, self-prepared, stored at −70. HCV Protease substrate (FRET-S): Ac-Asp-Glu-Asp(EDANS)-Glu-Glu-Abu-ψ-[COO]-Ala-Ser-Lys-(DABCYL)-NH2, supplied by AnaSpec USA, prepared of 100 μM by DMSO, distributed and stored at −20 without light. Buffer solution: 30 mM NaCl, 5 mM CaCl2, 10 mM DTT, 50 mM Tris (pH7.8).\nInstrument: fluorescence detector Polarstar from Germany Company BMG\nPreparation and operation: preparation of 10 mg/mL by DMSO, dilute of 10000, 2000, 400, 80, 16 ng/mL as tested concentrations by buffer solutions, adding 20 μL into each well, the total reaction system is 200 μL, to make the final concentrations of 1000, 200, 40, 8, 1.6 ng/mL. Add 140 μL buffer solution, 20 μL drug solution, 20 μL HCV protease, and 20 μL FRET-S substrate with final concentration of 0.25 μM into 96-well fluorescence microtiterplate, the reaction started at 37, set control wells of protease-substrate reaction and of isolate substrate and isolate protease, fluorescence signals were detected by fluorescence detector (ex=355,em=520). Calculate the inhibition rates of samples for each concentration by comparison of fluorescence value of sample in each well and the fluorescence control value of enzyme, calculate the half maximal inhibitory concentration (IC50) of samples to HCV protease with the method of Reed-Muench.\nTHF and Et2O were distilled from sodium metal and benzophenone. DCM, pentane and hexane were distilled form calcium hydride. Special raw materials and intermediates in the invention were supplied by Zannan SciTech Co. for ordered processing, Ltd. in Shanghai, others reagents were purchased from Shanghai reagent company, Aldrich, Acros etc. If intermediates or products of synthesis were not enough for the next step of reaction, the synthesis shall be repeated until it is sufficient. The HCV protease (HCV NS3-4A) inhibitory activity assays in the present invention were performed by relevant cooperation service units of China Institutes for Biological Science in Beijing.", "units": {"IC50": "nM"}}
{"smiles": "CC[C@H]1C[C@@]1(NC(=O)C1C[C@@H]2CN1C(=O)[C@H](C(C)(C)C)NC(=O)OCC(C)(C)CCCCCOCc1cccc3c1CN(C3)C(=O)O2)C(=O)NS(=O)(=O)C1CC1", "note": "(stereo partly shown) [Compound 15av]", "IC50": "5.1 to 50"}
{"smiles": "CC[C@H]1C[C@@]1(NC(=O)C1C[C@@H]2CN1C(=O)[C@H](C(C)(C)C)NC(=O)OCCCCCCNC(=O)c1cccc3c1CN(C3)C(=O)O2)C(=O)NS(=O)(=O)C1CC1", "note": "(stereo partly shown) [Compound 15bb]", "IC50": "5.1 to 50"}
{"smiles": "C=C[C@H]1C[C@@]1(NC(=O)C1C[C@@H]2CN1C(=O)[C@H](C(C)(C)C)NC(=O)OCC(C)(C)OCCCCOc1cccc3c1CN(C3)C(=O)O2)C(=O)NS(=O)(=O)C1CC1", "note": "(stereo partly shown) [Compound 15ak]", "IC50": "0.1 to 5"}
{"smiles": "C=CC1CC1(NC(=O)C1CC2CN1C(=O)C(C(C)(C)C)NC(=O)OCC(C)(C)CC=CCOc1c(OC)ccc3c1CN(C3)C(=O)O2)C(=O)NS(=O)(=O)C1CC1", "note": "(stereo not shown) [Compound 15p]", "IC50": "0.1 to 5"}
{"smiles": "C=C[C@H]1C[C@@]1(NC(=O)C1C[C@@H]2CN1C(=O)[C@H](C(C)(C)C)NC(=O)OCCCCCCCOc1cccc3c1CN(C3)C(=O)O2)C(=O)NS(=O)(=O)C1CC1", "note": "(stereo partly shown) [Compound 15ab]", "IC50": "0.1 to 5"}
{"smiles": "CC[C@H]1C[C@@]1(NC(=O)C1C[C@@H]2CN1C(=O)[C@H](C(C)(C)C)NC(=O)OCC1(CCCCCOc3cccc4c3CN(C4)C(=O)O2)CC1)C(=O)NS(=O)(=O)C1CC1", "note": "(stereo partly shown) [Compound 15a]", "IC50": "0.1 to 5"}
{"smiles": "C=C[C@H]1C[C@@]1(NC(=O)C1C[C@@H]2CN1C(=O)[C@H](C(C)(C)C)NC(=O)OCCCC/C=C/COc1ccc3c(c1)CN(C3)C(=O)O2)C(=O)NS(=O)(=O)C1CC1", "note": "(stereo partly shown) [Compound 15bh]", "IC50": "0.1 to 5"}
{"smiles": "C=CC1CC1(NC(=O)C1CC2CN1C(=O)C(C(C)(C)C)NC(=O)OCCCC=Cc1c3c(cc4c1OCO4)CN(C3)C(=O)O2)C(=O)NS(=O)(=O)C1CC1", "note": "(stereo not shown) [Compound 15bt]", "IC50": "0.1 to 5"}
{"smiles": "CC[C@H]1C[C@@]1(NC(=O)C1C[C@@H]2CN1C(=O)[C@H](C(C)(C)C)NC(=O)OCC(F)(F)CCCCOc1cccc3c1CN(C3)C(=O)O2)C(=O)NS(=O)(=O)C1CC1", "note": "(stereo partly shown) [Compound 15ba]", "IC50": "0.1 to 5"}
{"smiles": "C=CC1CC1(NC(=O)C1CC2CN1C(=O)C(C(C)(C)C)NC(=O)OCCCCCCOc1cccc3c1CN(C3)C(=O)O2)C(=O)NS(=O)(=O)C1CC1", "note": "(stereo not shown) [Compound 15aa]", "IC50": "0.1 to 5"}
{"smiles": "CCC1CC1(NC(=O)C1CC2CN1C(=O)C(C(C)(C)C)NC(=O)OCCCC=CCOc1ccc3c(c1)CN(C3)C(=O)O2)C(=O)NS(=O)(=O)C1CC1", "note": "(stereo not shown) [Compound 15bk]", "IC50": "5.1 to 50"}
{"smiles": "C=C[C@H]1C[C@@]1(NC(=O)C1C[C@@H]2CN1C(=O)[C@H](C(C)(C)C)NC(=O)OCC(C)(C)CCCCCOc1ccc3c(c1)CN(C3)C(=O)O2)C(=O)NS(=O)(=O)C1CC1", "note": "(stereo partly shown) [Compound 15bn]", "IC50": "0.1 to 5"}
{"smiles": "CC[C@H]1C[C@@]1(NC(=O)C1C[C@@H]2CN1C(=O)[C@H](C(C)(C)C)NC(=O)OCC(C)(C)CCCCCOc1ccc3c(c1)CN(C3)C(=O)O2)C(=O)NS(=O)(=O)C1CC1", "note": "(stereo partly shown) [Compound 15bp]", "IC50": "0.1 to 5"}
{"smiles": "CC[C@H]1C[C@@]1(NC(=O)C1C[C@@H]2CN1C(=O)[C@H](C(C)(C)C)NC(=O)OCCCCCCCOc1ccc3c(c1)CN(C3)C(=O)O2)C(=O)NS(=O)(=O)C1CC1", "note": "(stereo partly shown) [Compound 15be]", "IC50": "0.1 to 5"}
{"smiles": "CC[C@H]1C[C@@]1(NC(=O)C1C[C@@H]2CN1C(=O)[C@H](C(C)(C)C)NC(=O)OCCCC/C=C\\c1c3c(cc4c1OCO4)CN(C3)C(=O)O2)C(=O)NS(=O)(=O)C1CC1", "note": "(stereo partly shown) [Compound 15bw]", "IC50": "0.1 to 5"}
{"smiles": "CC[C@H]1C[C@@]1(NC(=O)C1C[C@@H]2CN1C(=O)[C@H](C(C)(C)C)NC(=O)OCC(C)(C)CCCCN(C)c1cccc3c1CN(C3)C(=O)O2)C(=O)NS(=O)(=O)C1CC1", "note": "(stereo partly shown) [Compound 15cd]", "IC50": "0.1 to 5"}
{"smiles": "C=C[C@H]1C[C@@]1(NC(=O)C1C[C@@H]2CN1C(=O)[C@H](C(C)(C)C)NC(=O)OCC1(C/C=C/COc3cccc4c3CN(C4)C(=O)O2)CC1)C(=O)NS(=O)(=O)C1CC1", "note": "(stereo partly shown) [Compound 15g]", "IC50": "0.1 to 5"}
{"smiles": "CC[C@H]1C[C@@]1(NC(=O)C1C[C@@H]2CN1C(=O)[C@H](C(C)(C)C)NC(=O)OCC1(C/C=C/CSc3cccc4c3CN(C4)C(=O)O2)CC1)C(=O)NS(=O)(=O)C1CC1", "note": "(stereo partly shown) [Compound 15ca]", "IC50": "0.1 to 5"}
{"smiles": "C=C[C@H]1C[C@@]1(NC(=O)C1C[C@@H]2CN1C(=O)[C@H](C(C)(C)C)NC(=O)OCCC/C=C/CCOc1cccc3c1CN(C3)C(=O)O2)C(=O)NS(=O)(=O)C1CC1", "note": "(stereo partly shown) [Compound 15an]", "IC50": "0.1 to 5"}
{"smiles": "CC[C@H]1C[C@@]1(NC(=O)C1C[C@@H]2CN1C(=O)[C@H](C(C)(C)C)NC(=O)OCCC/C=C/CSc1cccc3c1CN(C3)C(=O)O2)C(=O)NS(=O)(=O)C1CC1", "note": "(stereo partly shown) [Compound 15cc]", "IC50": "0.1 to 5"}
{"smiles": "C=CC1CC1(NC(=O)C1CC2CN1C(=O)C(C(C)(C)C)NC(=O)OCCCCCCCCOc1cccc3c1CN(C3)C(=O)O2)C(=O)NS(=O)(=O)C1CC1", "note": "(stereo not shown) [Compound 15ac]", "IC50": "0.1 to 5"}
{"smiles": "C=C[C@H]1C[C@@]1(NC(=O)C1C[C@@H]2CN1C(=O)[C@H](C(C)(C)C)NC(=O)OCC(C)(C)CC/C=C\\c1c3c(cc4c1OCO4)CN(C3)C(=O)O2)C(=O)NS(=O)(=O)C1CC1", "note": "(stereo partly shown) [Compound 15bv]", "IC50": "0.1 to 5"}
{"smiles": "CCC1CC1(NC(=O)C1CC2CN1C(=O)C(C(C)(C)C)NC(=O)OCCCCCCCCOc1cccc3c1CN(C3)C(=O)O2)C(=O)NS(=O)(=O)C1CC1", "note": "(stereo not shown) [Compound 15y]", "IC50": "5.1 to 50"}
{"smiles": "CC[C@H]1C[C@@]1(NC(=O)C1C[C@@H]2CN1C(=O)[C@H](C(C)(C)C)NC(=O)OCC(C)(C)OC/C=C/COc1cccc3c1CN(C3)C(=O)O2)C(=O)NS(=O)(=O)C1CC1", "note": "(stereo partly shown) [Compound 15aj]", "IC50": "0.1 to 5"}
{"smiles": "CC[C@H]1C[C@@]1(NC(=O)C1C[C@@H]2CN1C(=O)[C@H](C(C)(C)C)NC(=O)OCCCCCCCOc1cccc3c1CN(C3)C(=O)O2)C(=O)NS(=O)(=O)C1CC1", "note": "(stereo partly shown) [Compound 15x]", "IC50": "0.1 to 5"}
{"smiles": "C=C[C@H]1C[C@@]1(NC(=O)C1C[C@@H]2CN1C(=O)[C@H](C(C)(C)C)NC(=O)OCC/C=C/COc1ccc3c(c1)CN(C3)C(=O)O2)C(=O)NS(=O)(=O)C1CC1", "note": "(stereo partly shown) [Compound 15bm]", "IC50": "51 to 300"}
{"smiles": "CC[C@H]1C[C@@]1(NC(=O)C1C[C@@H]2CN1C(=O)[C@H](C(C)(C)C)NC(=O)OCCCCCCOC(=O)c1ccc3c(c1)CN(C3)C(=O)O2)C(=O)NS(=O)(=O)C1CC1", "note": "(stereo partly shown) [Compound 15bq]", "IC50": "51 to 300"}
{"smiles": "CC[C@H]1C[C@@]1(NC(=O)C1C[C@@H]2CN1C(=O)[C@H](C(C)(C)C)NC(=O)OCCCCCCOCc1cccc3c1CN(C3)C(=O)O2)C(=O)NS(=O)(=O)C1CC1", "note": "(stereo partly shown) [Compound 15aw]", "IC50": "5.1 to 50"}
{"smiles": "CC[C@H]1C[C@@]1(NC(=O)C1C[C@@H]2CN1C(=O)[C@H](C(C)(C)C)NC(=O)OCCCC/C=C/COc1c(OC)ccc3c1CN(C3)C(=O)O2)C(=O)NS(=O)(=O)C1CC1", "note": "(stereo partly shown) [Compound 15q]", "IC50": "5.1 to 50"}
{"smiles": "CCC1CC1(NC(=O)C1CC2CN1C(=O)C(C(C)(C)C)NC(=O)OCC(C)(C)CCCCCOc1cc(OC)cc3c1CN(C3)C(=O)O2)C(=O)NS(=O)(=O)C1CC1", "note": "(stereo not shown) [Compound 15v]", "IC50": "0.1 to 5"}
{"smiles": "C=C[C@H]1C[C@@]1(NC(=O)C1C[C@@H]2CN1C(=O)[C@H](C(C)(C)C)NC(=O)OCCCCCOc1cccc3c1CN(C3)C(=O)O2)C(=O)NS(=O)(=O)C1CC1", "note": "(stereo partly shown) [Compound 15af]", "IC50": "0.1 to 5"}
